Publication PMC10938783, “A novel pan-PI3K inhibitor KTC1101 synergizes with anti-PD-1 therapy by targeting tumor suppression and immune activation” (Molecular Cancer, 2024)

System: B16 cells gene expression
Assay: RNA-Seq (DEGs, GSEA, heatmaps) of B16 cells
Conditions: B16 cells

Structure (SMILES): COc1cc(N)cc2c1nc(C(F)F)n2-c1nc(N2CCCOCC2)nc(N2CCOCC2)n1 [KTC1101, 2-(difluoromethyl)-4-methoxy-1-(4-morpholino-6-(1,4-oxazepan-4-yl)-1,3,5-triazin-2-yl)-1H-benzo[d]imidazol-6-amine]
- NES: Fat digestion and absorption (GSEA KEGG mmu04975, KTC 0.2μM): -1.65
- enrichmentScore: Fat digestion and absorption (GSEA KEGG mmu04975, KTC 0.2μM): -0.5488
- NES: Bile secretion (GSEA KEGG mmu04976, KTC 0.2μM): 1.51
- enrichmentScore: Bile secretion (GSEA KEGG mmu04976, KTC 0.2μM): 0.4976
- NES: Mineral absorption (GSEA KEGG mmu04978, KTC 0.2μM): -1.388
- enrichmentScore: Mineral absorption (GSEA KEGG mmu04978, KTC 0.2μM): -0.4138
- NES: Cholesterol metabolism (GSEA KEGG mmu04979, KTC 0.2μM): -1.456
- enrichmentScore: Cholesterol metabolism (GSEA KEGG mmu04979, KTC 0.2μM): -0.4442
- NES: Alzheimer disease (GSEA KEGG mmu05010, KTC 0.2μM): -1.608
- enrichmentScore: Alzheimer disease (GSEA KEGG mmu05010, KTC 0.2μM): -0.3072
- NES: Parkinson disease (GSEA KEGG mmu05012, KTC 0.2μM): -1.964
- enrichmentScore: Parkinson disease (GSEA KEGG mmu05012, KTC 0.2μM): -0.3949
- NES: Amyotrophic lateral sclerosis (GSEA KEGG mmu05014, KTC 0.2μM): -1.71
- enrichmentScore: Amyotrophic lateral sclerosis (GSEA KEGG mmu05014, KTC 0.2μM): -0.329
- NES: Huntington disease (GSEA KEGG mmu05016, KTC 0.2μM): -1.539
- enrichmentScore: Huntington disease (GSEA KEGG mmu05016, KTC 0.2μM): -0.3057
- NES: Prion disease (GSEA KEGG mmu05020, KTC 0.2μM): -1.774
- enrichmentScore: Prion disease (GSEA KEGG mmu05020, KTC 0.2μM): -0.3631
- NES: Pathways of neurodegeneration - multiple diseases (GSEA KEGG mmu05022, KTC 0.2μM): -1.25
- enrichmentScore: Pathways of neurodegeneration - multiple diseases (GSEA KEGG mmu05022, KTC 0.2μM): -0.2359
- NES: Morphine addiction (GSEA KEGG mmu05032, KTC 0.2μM): 2.084
- enrichmentScore: Morphine addiction (GSEA KEGG mmu05032, KTC 0.2μM): 0.6804
- NES: Leishmaniasis (GSEA KEGG mmu05140, KTC 0.2μM): 1.636
- enrichmentScore: Leishmaniasis (GSEA KEGG mmu05140, KTC 0.2μM): 0.5458
- NES: Chagas disease (GSEA KEGG mmu05142, KTC 0.2μM): 1.762
- enrichmentScore: Chagas disease (GSEA KEGG mmu05142, KTC 0.2μM): 0.5294
- NES: Amoebiasis (GSEA KEGG mmu05146, KTC 0.2μM): 1.187
- enrichmentScore: Amoebiasis (GSEA KEGG mmu05146, KTC 0.2μM): 0.3662
- NES: Hepatitis B (GSEA KEGG mmu05161, KTC 0.2μM): 1.161
- enrichmentScore: Hepatitis B (GSEA KEGG mmu05161, KTC 0.2μM): 0.3151
- NES: Human cytomegalovirus infection (GSEA KEGG mmu05163, KTC 0.2μM): 1.262
- enrichmentScore: Human cytomegalovirus infection (GSEA KEGG mmu05163, KTC 0.2μM): 0.333
- NES: Human T-cell leukemia virus 1 infection (GSEA KEGG mmu05166, KTC 0.2μM): 1.309
- enrichmentScore: Human T-cell leukemia virus 1 infection (GSEA KEGG mmu05166, KTC 0.2μM): 0.342
- NES: Kaposi sarcoma-associated herpesvirus infection (GSEA KEGG mmu05167, KTC 0.2μM): 1.355
- enrichmentScore: Kaposi sarcoma-associated herpesvirus infection (GSEA KEGG mmu05167, KTC 0.2μM): 0.3649
- NES: Herpes simplex virus 1 infection (GSEA KEGG mmu05168, KTC 0.2μM): 1.765
- enrichmentScore: Herpes simplex virus 1 infection (GSEA KEGG mmu05168, KTC 0.2μM): 0.4327
- NES: Transcriptional misregulation in cancer (GSEA KEGG mmu05202, KTC 0.2μM): 1.705
- enrichmentScore: Transcriptional misregulation in cancer (GSEA KEGG mmu05202, KTC 0.2μM): 0.4772
- NES: Proteoglycans in cancer (GSEA KEGG mmu05205, KTC 0.2μM): 1.25
- enrichmentScore: Proteoglycans in cancer (GSEA KEGG mmu05205, KTC 0.2μM): 0.3314
- NES: Chemical carcinogenesis - reactive oxygen species (GSEA KEGG mmu05208, KTC 0.2μM): -1.582
- enrichmentScore: Chemical carcinogenesis - reactive oxygen species (GSEA KEGG mmu05208, KTC 0.2μM): -0.3305
- NES: Prostate cancer (GSEA KEGG mmu05215, KTC 0.2μM): 1.478
- enrichmentScore: Prostate cancer (GSEA KEGG mmu05215, KTC 0.2μM): 0.4248
- NES: Basal cell carcinoma (GSEA KEGG mmu05217, KTC 0.2μM): -1.6573
- enrichmentScore: Basal cell carcinoma (GSEA KEGG mmu05217, KTC 0.2μM): -0.5057
- NES: Acute myeloid leukemia (GSEA KEGG mmu05221, KTC 0.2μM): 1.189
- enrichmentScore: Acute myeloid leukemia (GSEA KEGG mmu05221, KTC 0.2μM): 0.3668
- NES: Small cell lung cancer (GSEA KEGG mmu05222, KTC 0.2μM): 1.1778
- enrichmentScore: Small cell lung cancer (GSEA KEGG mmu05222, KTC 0.2μM): 0.3365
- NES: Breast cancer (GSEA KEGG mmu05224, KTC 0.2μM): 1.3909
- enrichmentScore: Breast cancer (GSEA KEGG mmu05224, KTC 0.2μM): 0.3926
- NES: Hepatocellular carcinoma (GSEA KEGG mmu05225, KTC 0.2μM): -1.183
- enrichmentScore: Hepatocellular carcinoma (GSEA KEGG mmu05225, KTC 0.2μM): -0.2565
- NES: Gastric cancer (GSEA KEGG mmu05226, KTC 0.2μM): 1.191
- enrichmentScore: Gastric cancer (GSEA KEGG mmu05226, KTC 0.2μM): 0.3347
- NES: Central carbon metabolism in cancer (GSEA KEGG mmu05230, KTC 0.2μM): -1.65
- enrichmentScore: Central carbon metabolism in cancer (GSEA KEGG mmu05230, KTC 0.2μM): -0.4278
- NES: Inflammatory bowel disease (GSEA KEGG mmu05321, KTC 0.2μM): 1.418
- enrichmentScore: Inflammatory bowel disease (GSEA KEGG mmu05321, KTC 0.2μM): 0.5282
- NES: Rheumatoid arthritis (GSEA KEGG mmu05323, KTC 0.2μM): 1.449
- enrichmentScore: Rheumatoid arthritis (GSEA KEGG mmu05323, KTC 0.2μM): 0.4777
- NES: Hypertrophic cardiomyopathy (GSEA KEGG mmu05410, KTC 0.2μM): 1.341
- enrichmentScore: Hypertrophic cardiomyopathy (GSEA KEGG mmu05410, KTC 0.2μM): 0.4238
- NES: Dilated cardiomyopathy (GSEA KEGG mmu05414, KTC 0.2μM): 1.501
- enrichmentScore: Dilated cardiomyopathy (GSEA KEGG mmu05414, KTC 0.2μM): 0.4674
- NES: Diabetic cardiomyopathy (GSEA KEGG mmu05415, KTC 0.2μM): -1.29
- enrichmentScore: Diabetic cardiomyopathy (GSEA KEGG mmu05415, KTC 0.2μM): -0.2769
- NES: Fluid shear stress and atherosclerosis (GSEA KEGG mmu05418, KTC 0.2μM): -1.4518
- enrichmentScore: Fluid shear stress and atherosclerosis (GSEA KEGG mmu05418, KTC 0.2μM): -0.3333
- NES, mmu00071 Fatty acid degradation (KTC1101 0.2μM, GSEA KEGG): 0.7528
- NES, mmu00310 Lysine degradation (KTC1101 0.2μM, GSEA KEGG): -0.7398
- NES, mmu00380 Tryptophan metabolism (KTC1101 0.2μM, GSEA KEGG): 1.209
- NES, mmu00500 Starch and sucrose metabolism (KTC1101 0.2μM, GSEA KEGG): -1.196
- NES, mmu00510 N-Glycan biosynthesis (KTC1101 0.2μM, GSEA KEGG): -0.6482
- NES, mmu00513 Various types of N-glycan biosynthesis (KTC1101 0.2μM, GSEA KEGG): 1.019
- NES, mmu00514 Other types of O-glycan biosynthesis (KTC1101 0.2μM, GSEA KEGG): 1.221
- NES, mmu00562 Inositol phosphate metabolism (KTC1101 0.2μM, GSEA KEGG): -1.021
- NES, mmu00564 Glycerophospholipid metabolism (KTC1101 0.2μM, GSEA KEGG): -0.7177
